The values below come from patent publication EP0600950B1, “AMIDE TETRAZOLE ACAT INHIBITORS” (priority 1991, dated 1993).

One test addresses acyl-CoA: cholesterol acyltransferase (ACAT). In words: in vitro ACAT inhibition, rabbit intestinal microsomes (IAI). Type of test: biochemical. To be noted: radiolabeled cholesterol oleate formed from radiolabeled oleic acid. From the text:
(§1) The test assesses the ability of a test compound to inhibit the acylation of cholesterol by oleic acid by measuring the amount of radiolabeled cholesterol oleate formed from radiolabeled oleic acid in a tissue preparation containing rabbit intestinal microsomes (designated IAI) or from rat liver microsomes (designated LAI).
In general, IC50 refers to the concentration needed to halve the response being measured. In turn, `CCCCCCCCCCCCn1nnc(C(C)(C(=O)Nc2c(OC)cc(OC)cc2OC)c2ccccc2)n1` (racemic) [Example 44, (±)-2-Dodecyl-α-methyl-α-phenyl-N-(2,4,6-trimethoxyphenyl)-2H-tetrazole-5-acetamide] yielded an IC50 of 29 nM.

On to `CCCCCCCCCCCCn1nnnc1C(C(=O)Nc1c(C(C)C)cccc1C(C)C)c1ccccc1` (racemic) [Example 26, (±)-N-[2,6-Bis(1-methylethyl)phenyl]-1-dodecyl-α-phenyl-1H-tetrazole-5-acetamide], for which it took 79 nM to reach half-maximal inhibition (IC50).

For the compound `CCCCCCCCCCCCCn1nnc(C(C)(C)C(=O)Nc2c(OC)cc(OC)cc2OC)n1` [Example 33, 2-Tridecyl-α,α-dimethyl-N-(2,4,6-trimethoxyphenyl)-2H-tetrazole-5-acetamide], half-maximal inhibition (IC50) was put at 17 nM.

In turn, `CCCCCCCCCCCCn1nnc(CCC(=O)Nc2ccc(F)cc2F)n1` [Example 36, N-(2,4-Difluorophenyl)-2-dodecyl-2H-tetrazole-5-propanamide] displayed a concentration for half-maximal inhibition (IC50) greater than 5000 nM.

The compound `CCCCCCCCCCCCn1nnnc1CC(=O)Nc1c(C(C)C)cccc1C(C)C` [Example 2, N-[2,6-Bis(1-methylethyl)phenyl]-1-dodecyl-1H-tetrazole-5-acetamide] had an IC50 of 92 nM.

In turn, `CCCCCCCCCCCCn1nnnc1CC(=O)Nc1c(OC)cc(OC)cc1OC` [Example 6, 1-dodecyl-N-(2,4,6-trimethoxyphenyl)-1H-tetrazole-5-acetamide] came in with an IC50 of 120 nM.

`CCCCCCCCCCCCn1nnc(CCC(=O)Nc2c(C(C)C)cccc2C(C)C)n1` [Example 35, N-(2,6-Bis(1-methylethyl)phenyl)-2-dodecyl-2H-tetrazole-5-propanamide] had an IC50 of 9 nM.

The compound `CCCCCCCCCCCCn1nnc(C(C(=O)NC(C)(C)C)c2ccccc2)n1` (racemic) [Example 30, (±) N-(1,1-dimethylethyl)-2-dodecyl-α-phenyl-2H-tetrazole-5-acetamide] displayed a half-maximal inhibitory concentration (IC50) of 770 nM.

`CCCCCCCCCCCCn1nnc(CC(=O)Nc2c(OC)ncnc2OC)n1` [Example 3, N-(4,6-dimethoxy-5-pyrimidinyl)-2-dodecyl-2H-tetra-zole-5-acetamide] gave an IC50 of 7 nM.

In turn, `CCCCCCCCCCCCn1nnc(C(C(=O)Nc2c(C)nn(C)c2C)c2ccccc2)n1` (racemic) [Example 19, (±)-2-dodecyl-α-phenyl-N-(1,3,5-trimethyl-1H-pyrazol-4-yl)-2H-tetrazole-5-acetamide] gave a half-inhibitory concentration (IC50) of 14 nM.

As for `CCCCCCCCCCCCCCCCn1nnc(C(C(=O)Nc2c(OC)cc(OC)cc2OC)c2ccccc2)n1` (racemic) [Example 32, (±) 2-Hexadecyl-α-phenyl-N-(2,4,6-trimethoxyphenyl)-2H-tetrazole-5-acetamide], the half-maximal inhibitory concentration (IC50) is 53 nM.

In turn, `CCCCCCCCCCCCn1nnc(CC(=O)Nc2c(C(C)C)cccc2C(C)C)n1` [Example 1, N-[2,6-Bis(1-methylethyl)phenyl]-2-dodecyl-2H-tetrazole-5-acetamide] came in with a half-maximal inhibitory concentration (IC50) of 3 nM.

In the case of `CCCCCCCCCCCCn1nnc(C(C(=O)Nc2ncccc2C)c2ccccc2)n1` (racemic) [Example 23, (±)-2-dodecyl-N-(3-methyl-2-pyridinyl)-α-phenyl-2H-tetrazole-5-acetamide], the IC50 worked out at 7.5 nM.

The compound `CCCCCCCCCCCCn1nnc(C(C(=O)Nc2c(OC)ncnc2OC)c2ccccc2)n1` (racemic) [Example 16, (±)-N-(4,6-dimethoxy-5-pyrimidinyl)-2-dodecyl-α-phenyl-2H-tetrazole-5-acetamide] gave an IC50 of 8 nM.

Turning to `CCCCCCCCn1nnc(C(C(=O)Nc2c(OC)cc(OC)cc2OC)c2ccccc2)n1` (racemic) [Example 31, (±)-2-Octyl-α-phenyl-N-(2,4,6-trimethoxyphenyl)-2H-tetrazole-5-acetamide], half-maximal inhibition (IC50) required 270 nM.

On to `CCCCCCCCCCCCn1nnnc1CCC(=O)Nc1c(OC)cc(OC)cc1OC` [Example 37, 1-Dodecyl-N-(2,4,6-trimethoxyphenyl)-1H-tetrazole-5-propanamide], for which it took 210 nM to reach half-maximal inhibition (IC50).

Consider `CCCCCCCCCCCCn1nnc(C(C(=O)Nc2ccccn2)c2ccccc2)n1` (racemic) [Example 22, (±)-2-dodecyl-α-phenyl-N-2-pyridinyl-2H-tetrazole-5-acetamide], for which the IC50 was found to be 91 nM.

Compound `CCCCCCCCCCCCn1nnc(C(C(=O)Nc2c(OC)cc(OC)cc2OC)c2ccccc2)n1` (single isomer, unassigned; (-)) [Example 61, (-)-2-Dodecyl-α-phenyl-N-(2,4,6-trimethoxy-phenyl)-2H-tetrazole-5-acetamide] returned an IC50 of 310 nM.

In the case of `CCCCCCCCCCCCn1nnc(C(C(=O)Nc2cnc3c(C)cc(C)cc3c2-c2ccccc2Cl)c2ccccc2)n1` (racemic) [Example 18, (±)-N-[4-(2-chlorophenyl)-6,8-dimethyl-3-quinolinyl]-2-dodecyl-α-phenyl-2H-tetrazole-5-acetamide], the midpoint of inhibition, the IC50, lay at 28 nM.

Take `CCCCCCCCCCCCn1nnc(C(C(=O)Nc2c(OC)cc(OC)cc2OC)c2ccc(N(C)C)cc2)n1` (racemic) [Example 51, (±)-α-[4-dimethylamino)phenyl]-2-dodecyl-N-(2,4,6-trimethoxy-phenyl)-2H-tetrazole-5-acetamide]: the IC50 came out at 660 nM.

The target is the same in another test. In words: in vitro ACAT inhibition, rat liver microsomes (LAI). To be noted: radiolabeled cholesterol oleate formed from radiolabeled oleic acid. Type of test: biochemical.
Excerpt: as §1
(In general: Microsomes from liver hold many membrane-bound enzymes, among them those of drug oxidation.)
As for `CCCCCCCCCCCCc1nnn(C(C(=O)Nc2c(OC)cc(OC)cc2OC)c2ccccc2)n1` (racemic) [Example 98, (±)-5-dodecyl-α-phenyl-N-(2,4,6-trimethoxyphenyl)-2H-tetrazole-2-acetamide], the midpoint of inhibition, the IC50, lay at 21 nM.

Turning to `CCCCCCCCCCCCc1nnn(CC(=O)Nc2ccc(F)cc2F)n1` [Example 101, N-(2,4-difluorophenyl)-5-dodecyl-2H tetrazole-2-acetamide], the 50% inhibitory concentration (IC50) was greater than 5000 nM.

`CCCCCCCCCCCC[S+]([O-])c1nnn(C(C(=O)Nc2c(OC)cc(OC)cc2OC)c2ccccc2)n1` (racemic) [Example 104, (±)-5-(dodecylsulfinyl)-α-phenyl-N-(2,4,6)-trimethoxyphenyl)-2H-tetrazole-2-acetamide] displayed a 50% inhibitory concentration (IC50) of 55 nM.

For `CCCCCCCCCCc1nnn(C(C(=O)Nc2c(OC)cc(OC)cc2OC)c2ccccc2)n1` (racemic) [Example 95, (±)-5-decyl-α-phenyl-N-(2,4,6-trimethoxyphenyl-2H-tetrazole-2-acetamide], inhibition was half-maximal at 58 nM (IC50).

Regarding `CCCCCCCCCCCCc1nnn(C(C(=O)Nc2c(C(C)C)cccc2C(C)C)c2ccccc2)n1` (racemic) [Example 92, (±)-N-[2,6-bis(1-methylethyl)phenyl]-5-dodecyl-α-phenyl-2H-tetrazole-2-acetamide], half-maximal inhibition (IC50) was put at 15 nM.

In turn, `CCCCCCCCCCCCc1nnn(CC(=O)Nc2c(OC)cc(OC)cc2OC)n1` [Example 97, 5-dodecyl-N-(2,4,6-trimethoxy-phenyl)-2H-tetrazole-2-acetamide] showed an IC50 of 56 nM.

Turning to `CCCCCCCCCCCCSc1nnn(C(C(=O)Nc2c(C(C)C)cccc2C(C)C)c2ccccc2)n1` (racemic) [Example 94, (±)-N-[2,6-bis(1-methylethyl)phenyl-5-(dodecylthio)-α-phenyl-2H-tetrazole-2-acetamide], the half-inhibitory concentration (IC50) came to 29 nM.

`CCCCCCCCCCCCc1nnn(C(C(=O)Nc2ccc(F)cc2F)c2ccccc2)n1` (racemic) [Example 100, (±)-N-(2,4-difluorophenyl-5-dodecyl-α-phenyl-2H-tetrazole-2-acetamide]: the IC50 was determined as 80 nM.
